In US11612586B2, “Indole regulation of antigen presenting cells” (THE TEXAS A&M UNIVERSITY SYSTEM, priority 2016, dated 2023):

Experiments:
[1] = system: Th1 cells; test: Th1 differentiation in DC-T cell co-culture; type: cell-based, mouse
Protocol: (§1) FIGS. 19A-19C graphically illustrate that indole-conditioned DCs inhibit Th1, Th2, and Th17 differentiation. Naïve CD4+CD25-T cells from OT-II TCR transgenic mice were isolated by column purification. Naïve T cells were then co-cultured with OVA323-339 peptide-loaded BMDCs for 72 hours in the presence or absence of lineage-skewing cytokines (described in methods). BMDCs were previously treated with indole, RA, or DMF from day 3. For the last 5 hours of culture, T cells were restimulated with PMA and ionomycin in the presence of Golgiplug, followed by intracellular staining. Cytokine production was determined to assess differentiation of Th1 (FIG. 19A), Th2 (FIG. 19B), and Th17 CD4+T (FIG. 19C) cells. Mean of three independent experiments. * indicates p<0.05 for one-way ANOVA followed by Dunnett's post-test.
FIGS. 20A and 20B graphically illustrate that T cell skewing mediated by indole-conditioned DCs is AhR-independent. BMDCs were differentiated from WT or AhR-KO mice and conditioned with indole, RA, or DMF from day 3. DCs were then loaded with OVA323-339 and co-cultured with naïve CD4+CD25− T cells from OT-II transgenic mice for 72 hours. […] Subsequently, all cultures were stained and analyzed by flow cytometry for Foxp3 to identify Tregs or (B) IFNγ to identify Th1 cells. […]

[2] = system: TGF-β; test: TGF-β production by BMDC cultures (ELISA); type: cell-based, mouse; details: indole-conditioned DCs
Protocol: To determine whether this was a specific downregulation of pro-inflammatory cytokines, production of the canonical DC-produced anti-inflammatory cytokines, IL-10 and TGF-β, was also examined.
Cytokine concentration in the supernatant of BMDC cultures was assessed using commercially available ELISA kits for IL-10 (Peprotech) and TGF-β (eBioscience) per the manufacturer's instructions.

[3] = system: TNF; test: TNF production in BMDCs, intracellular staining, flow cytometry; type: cell-based, mouse; details: 1 mM TDMM 24 hours, LPS (1 ug/ml) 4 hours
Protocol: Intracellular staining was performed to assess TNF production.
Intracellular staining was performed to assess TNF (FIG. 3A) and IL-12 (FIG. 3B) production.
Briefly, bone marrow was harvested from femurs of mice and cultured for 7 days in the presence of DC-skewing cytokines, GM-CSF and IL-4. […] The pro-inflammatory cytokines, IL-6 and IL-12, were specifically queried. […] Immune cells communicate largely through the production of soluble factors including cytokines, and DCs detect these signals and determine their effector functions accordingly.
(§2) The inventors performed a series of assays where bone marrow derived macrophages (BMDMs), bone marrow derived dendritic cells (BMDCs), and splenic dendritic cells (splenic DCs), were exposed to a series of TDMMs, including indole, indole-3-acetate (I3AT), 5-hydroxyindole (5HI), and indole-3-pyruvate (I3P), as well as indole-3-carbinol (I3C; a plant derived compound) to be used for a positive control (1 mM for 24 hours). The BMDMs and BMDCs were stimulated with LPS for 4 hours and assayed at day 7 for expression of various pro-inflammatory cytokines. In a similar assay, the BMDMs and BMDCs were stimulated with LPS or CpG, respectively, for 15 minutes and assayed for pAKT and pERK signaling, which is a reflection of pro-inflammatory response.

[4] = system: Th17 cells; test: Th17 differentiation in DC-T cell co-culture; type: cell-based, mouse; details: co-culture with DCs conditioned with indole, Th17-skewing cytokines present
Protocol: as §1
In order to determine whether the indole-conditioned DC induction of Tregs was specific to this lineage, additional T cell fates were quieried. Activated CD4+T helper cells are typically divided into the subsets Th1, Th2, Th17, and Treg, based on their expression of transcription factors and pattern of cytokine secretion. The antigen-specific co-culture system was used to investigate these remaining traditional T cell lineages with the addition of an endpoint PMA/Ionomycin stimulation to induce cytokine secretion. […]

[5] = system: DCs; test: Antigen-uptake assay in DCs; details: FITC-labeled OVA particles
Protocol: The phagocytic ability of DCs was examined by incubating DCs with FITC-labeled OVA particles, then analyzing via flow cytometry.
Ovalbumin (OVA)-Alexafluor 488 conjugate (Molecular Probes) was used for measuring antigen uptake by DCs. […] Cells were then washed 3 times with ice-cold PBS containing 0.5% BSA to terminate uptake. Cells were surface stained for CD11c and fixed with 4% paraformaldehyde. Uptake of OVA-A488 was measured by flow cytometry.

[6] = system: Akt; test: phospho-Akt signaling in BMDMs; type: cell-based, mouse
Protocol: The PI3K/Akt and MAPK/Erk signaling pathways regulate many cellular processes including survival, apoptosis, growth, and cytokine production. […] Specifically, BMDMs were treated with indole (1 mM) or DMF control for 18 hours, then stimulated with LPS (10 ug/ml) or CpG (5 uM) for 30 minutes. Cells were stained for phospho-Akt or phospho-Erk and analyzed by flow cytometry.
as §2

## c1ccc2[nH]ccc2c1 [Indole, indole]
[1]; co-culture with DCs conditioned with indole
  development of Th1 lineage: stark inhibition
[1]; indole-conditioned BMDCs from wild-type or AhR-deficient mice
  AhR dependence of inhibition of the Th1 lineage: AhR-independent
[2]
  TGF-β production: Neither IL-10 nor TGF-β production were affected
[3]
  TNF: ↓↓
[4]
  Th17 differentiation, rate of T cells: less than 0.5%
[5]
  particle uptake by DCs: did not alter particle uptake
[6]; 1 mM TDMM 24 hours, LPS 1 ug/ml 15 minutes
  pAKT: ↓
[6]; indole 1 mM 18 hours, LPS (10 ug/ml) or CpG (5 uM) 30 minutes
  dampening of pAkt signaling: approximately 50%
